Source: patent US8728980B2, “Peptide microarray and method of use” (The Regents of the University of California, priority 2011, dated 2014)

Tests used:
[1] = molecular target: T1, Polycomb protein chromodomain (Drosophila melanogaster, UniProt P26017); test: Peptide microarray binding of GST-tagged Polycomb chromodomain; parameters: dose or concentration left out as unconfirmed; conditions: Binder if at least two of three spots pass p-value cutoff 0.001 from background
T1 construct: The chromodomain (a.a. 1-90) of Polycomb protein was expressed as GST-tagged fusion protein; made in house
T1 sequence (P26017 1-90): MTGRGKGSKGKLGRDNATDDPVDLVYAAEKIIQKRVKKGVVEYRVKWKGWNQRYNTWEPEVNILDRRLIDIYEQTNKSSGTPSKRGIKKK
From the text: There are a total of 46 histone peptide sequences (9 a.a. long) with a single lysine-trimethylation site which are conserved between the human and fruit fly H2, H3 and H4 proteins (Table II). These were screened for Polycomb protein chromodomain binding by peptide microarray. Each peptide sequence was screened as triplets, and the fluorescence intensity was quantified with background subtraction individually for each spot from the microarray images by ImageJ^9 and the whole data set was fit to a mixed Gaussian distribution model (FIG. 8, Table III).
Twelve out of the 46 sequences were identified as positive binders under these criteria. Ten of these microarray-identified binders also yielded high mutation matrix score in an independent prediction (Table IV).
The chromodomain (a.a. 1-90) of Polycomb protein was expressed as GST-tagged fusion protein and purified as described in [65]. The purity of the protein was examined by SDS-PAGE electrophoresis followed by both Coomassie staining and western blot using an Anti-GST-HRP conjugate (Santa Cruz Biotechnology). The concentration of purified protein was determined by BCA assay (Amresco). A total of 46 trimethylated histone peptides were synthesized by Sigma Aldrich (desalted, mass spectrometry checked). The peptides were then printed as triplets onto glass slides (ArrayIt), together with a Cy3 marker and an anti-GST (mouse monoclonal) antibody (Thermo) as references.
The peptide microarray was rinsed with TBST buffer (25 mM Tris, 125 mM NaCl, 0.05% Tween-20, pH 8) followed by blocking with 5% non-fat milk in TBST (room temperature 1 hour or 4° C. overnight). The slide was then incubated at 4° C. with Polycomb-GST fusion protein at a final concentration of […] in 5% non-fat milk/TBST for 6 hours. After washing three times for 10 minutes each with TBST, the slide was incubated with an anti-GST mouse monoclonal IgG antibody (Thermo) at a final concentration of 1 μg/mL in 5% non-fat milk/TBST and shaken gently for 1 hour at room temperature. A secondary anti-mouse IgG Dylight-488 conjugated antibody (Thermo) was added to a final concentration of 0.1 μg/mL after three more cycles of 10 minutes washing with TBST. The slide was shaken for 1 hr at room temperature and washed three times with TBST.
The dried microarray slides were scanned using a Hamamatsu NanoZoomer 2.0HT Slide Scanning System (Neuroscience Light Microscopy Facility, UCSD). Data quantification were processed using the microarray processing software ImageJ^9, where the fluorescent intensity of a microarray spot was defined as its own intensity minus the background intensity around it on the scanned image.

[2] = molecular target: T2, Polycomb (Drosophila melanogaster, UniProt P26017); conditions: from reference 2; read-out: Experimental dissociation constant; cited from earlier work
T2 sequence (P26017 1-390): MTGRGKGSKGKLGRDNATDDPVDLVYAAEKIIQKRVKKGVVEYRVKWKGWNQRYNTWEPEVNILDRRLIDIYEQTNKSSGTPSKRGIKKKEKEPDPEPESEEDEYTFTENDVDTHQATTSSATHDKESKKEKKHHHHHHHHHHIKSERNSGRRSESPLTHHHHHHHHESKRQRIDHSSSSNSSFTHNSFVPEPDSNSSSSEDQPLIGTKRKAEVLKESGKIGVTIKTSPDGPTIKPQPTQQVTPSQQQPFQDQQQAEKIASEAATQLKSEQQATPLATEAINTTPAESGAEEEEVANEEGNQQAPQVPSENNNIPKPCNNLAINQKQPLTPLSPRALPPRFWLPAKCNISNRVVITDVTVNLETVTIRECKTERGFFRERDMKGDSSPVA

[3] = molecular target: Abl1 SH3 domain (Homo sapiens, UniProt P00519); test: Peptide microarray binding of GST-Abl SH3 fusion protein (Cy3 fluorescence); conditions: peptides printed at 1 mg/ml in triplicates, GST-Abl SH3 5 μM
Description: The GST-tagged Abl SH3 domain fusion protein was purified as previously described (12). Protein concentration was determined using the Bradford Assay (Bio-Rad). The purity of the fusion protein was checked by electrophoresis on SDS-PAGE gel and coomassie blue staining. The fusion protein was also subjected to electrophoresis on SDS-PAGE gel, followed by Western blot using a horseradish peroxidase-conjugated anti-GST antibody (Santa Cruz Biotechnology) and the SuperSignal West chemiluminescent substrate (Pierce).
All peptides were synthesized by Sigma-Aldrich. The peptides were printed onto glass slides in triplicates by ArrayIt Corporation. […]
The peptide microarray was processed by the InnoScan 710 laser scanner (ArrayIt Corporation). Cy-3 fluorescence was detected using the 532 nm laser at 3 um resolution. The resulted microarray image was analyzed by the microarray image process software Mapix2.8.2 (ArrayIt Corporation). The fluorescent intensity of a microarray spot was defined as its own intensity minus the background intensity around it, as determined from the scanned image.
To print peptide microarrays, method of immobilizing the peptides on the glass surface, as well as the amount of peptide printed, needed to decide. […] Binding of GST-Abl SH3 to peptides generated a Cy3 fluorescent signal that was recorded on a laser scanner. […]

Abl1 SH3 domain, sequence (P00519 61-121 limits assumed): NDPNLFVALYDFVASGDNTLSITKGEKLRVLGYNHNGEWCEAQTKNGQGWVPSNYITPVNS

| Sequence | Array Verification [1] | Kd [2] [µM] | Average fluorescence intensity (high printing concentration) [3] |
| --- | --- | --- | --- |
| LATKAARKS [template histone H3 peptide L20 to S28 with trimethylated Lys27, reference compound] | Binder | 5 ± 1 |  |
| PPDPPPPPLP [10-residue peptide of SHIP2_HUMAN 1050-1059] |  |  | 58833 |
